In US9777000B2, “Pyrazole derivative” (MOCHIDA PHARMACEUTICAL CO., LTD., priority 2013, dated 2017):
pIC50: −log10 of the molar value.

biological target: human PDE10 (Homo sapiens (Human), UniProt Q9Y233); test: Evaluation of enzyme inhibitory activity: human PDE10 inhibitory effect (IMAP TR-FRET); format: biochemical; conditions: cAMP substrate
Protocol: (Evaluation of Enzyme Inhibitory Activity: Human PDE10 Inhibitory Effect)
IMAP TR-FRET Phosphodiersterase Evaluation Assay Kit (Molecular Device) was used for the measurement. Ten μL of a diluted test compound having each concentration and 5 μL of the enzyme PDE10 (BPA Bioscience) that had been diluted to 2 ng/mL with 1×IMAP Reaction Buffer (prepared with 5×included with the kit, 10 mM Tris-HCl, pH=7.2, 10 mM MgCl2, 0.05% NaN3, and 0.1% BSA) containing 0.1% BSA were added to a 384-well plate (Corning). The obtained mixture was then pre-incubated at room temperature for 5 minutes. Thereafter, 5 μL of cAMP substrate solution which was included with the kit and diluted to 400 nM with 1×IMAP Reaction Buffer containing 0.1% BSA, was added to the reaction solution, and the obtained mixture was reacted at room temperature for 60 minutes. Thereafter, 60 μL of an IMAP TR-FRET Binding solution included with the kit was further added to the reaction solution, and the obtained mixture was then left for 3 hours or more. Subsequently, using ARVO SX (PerkinElmer), the fluorescent intensity of Terbium (Emission=490 nm) and TR-FRET (Emission=520 nm) in the reaction solution were measured at an excitation wavelength of 340 nm, so as to calculate the amount of the generated 5′-AMP. The count of a well to which a solvent had been added instead of the test compound was set at 0%, and the count of a well to which the enzyme PDE10 had not been added was set at 100%. Thus, the inhibitory activity of each test compound was calculated.
The PDE10 inhibitory activity of the test compound was indicated with an IC50 value. […] The test compounds are shown in Table 3 (Table 3-1 and Table 3-2).

Sequence of human PDE10 (Q9Y233 whole entry): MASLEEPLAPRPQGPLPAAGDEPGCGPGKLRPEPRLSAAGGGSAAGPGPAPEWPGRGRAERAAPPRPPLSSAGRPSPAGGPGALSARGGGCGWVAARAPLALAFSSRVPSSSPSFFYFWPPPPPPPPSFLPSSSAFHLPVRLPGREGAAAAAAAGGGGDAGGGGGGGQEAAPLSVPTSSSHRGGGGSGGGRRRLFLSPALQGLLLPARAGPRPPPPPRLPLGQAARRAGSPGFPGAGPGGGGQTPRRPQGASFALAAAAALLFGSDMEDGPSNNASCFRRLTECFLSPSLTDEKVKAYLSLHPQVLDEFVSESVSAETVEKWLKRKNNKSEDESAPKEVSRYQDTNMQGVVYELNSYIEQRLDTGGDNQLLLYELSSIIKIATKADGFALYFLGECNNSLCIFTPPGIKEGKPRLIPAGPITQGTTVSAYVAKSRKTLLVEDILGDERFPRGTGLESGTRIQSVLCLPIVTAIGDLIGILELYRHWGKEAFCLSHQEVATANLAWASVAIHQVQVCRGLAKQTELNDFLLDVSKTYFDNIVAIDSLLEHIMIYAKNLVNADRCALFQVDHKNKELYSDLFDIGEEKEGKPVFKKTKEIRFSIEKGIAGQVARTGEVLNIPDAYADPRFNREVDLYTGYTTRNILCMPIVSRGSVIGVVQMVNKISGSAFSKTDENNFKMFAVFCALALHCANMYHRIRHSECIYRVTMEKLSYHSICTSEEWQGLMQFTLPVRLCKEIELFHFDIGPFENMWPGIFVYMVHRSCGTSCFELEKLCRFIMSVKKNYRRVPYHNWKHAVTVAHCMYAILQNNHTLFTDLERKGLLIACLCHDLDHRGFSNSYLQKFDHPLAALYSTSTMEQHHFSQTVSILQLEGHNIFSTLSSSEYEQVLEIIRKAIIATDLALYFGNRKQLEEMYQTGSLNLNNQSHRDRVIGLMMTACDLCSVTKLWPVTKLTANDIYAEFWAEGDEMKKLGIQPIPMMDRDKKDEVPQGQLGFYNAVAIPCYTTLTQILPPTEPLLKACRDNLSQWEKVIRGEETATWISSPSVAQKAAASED

pIC50, > 8.30:
Cn1ncc(-c2nc(C(F)F)cs2)c1C(=O)Nc1cc2nc(-c3ccccc3)nn2cc1F [Example 3.12, 4-(4-(difluoromethyl)thiazol-2-yl)-N-(6-fluoro-2-phenyl-[1,2,4]triazolo[1,5-a]pyridin-7-yl)-1-methyl-1H-pyrazole-5-carboxamide]
Cn1ncc(-c2ncccc2C#N)c1C(=O)Nc1cc2nc(-c3ccccc3)nn2cc1F [Example 3.13, 4-(3-cyanopyridin-2-yl)-N-(6-fluoro-2-phenyl-[1,2,4]triazolo[1,5-a]pyridin-7-yl)-1-methyl-1H-pyrazole-5-carboxamide]
Cc1cnc(C)c(-c2cnn(C)c2C(=O)Nc2cc3nc(-c4ccccc4)nn3cc2F)n1 [Example 3.14, 4-(3,6-dimethyl-pyrazin-2-yl)-N-(6-fluoro-2-phenyl-[1,2,4]triazolo[1,5-a]pyridin-7-yl)-1-methyl-1H-pyrazole-5-carboxamide]
Cn1ncc(-c2nc(C(F)F)cs2)c1C(=O)Nc1ccn2nc(-c3ccccc3)nc2c1 [Example 3.15, 4-(4-(difluoromethyl)thiazol-2-yl)-1-methyl-N-(2-phenyl-[1,2,4]triazolo[1,5-a]pyridin-7-yl)-1H-pyrazole-5-carboxamide]
COc1ccccc1-c1nc2cc(NC(=O)c3c(-c4nc(C(F)F)cs4)cnn3C)ccn2n1 [Example 3.16, 4-(4-(difluoromethyl)thiazol-2-yl)-N-(2-(2-methoxyphenyl)-[1,2,4]triazolo[1,5-a]pyridin-7-yl)-1-methyl-1H-pyrazole-5-carboxamide]
Cn1ncc(-c2nc(C(F)F)cs2)c1C(=O)Nc1ccn2nc(-c3cccc(F)c3)nc2c1 [Example 3.17, 4-(4-(difluoromethyl)thiazol-2-yl)-N-(2-(3-fluorophenyl)-[1,2,4]triazolo[1,5-a]pyridin-7-yl)-1-methyl-1H-pyrazole-5-carboxamide]
CCc1csc(-c2cnn(C)c2C(=O)Nc2ccn3nc(-c4ccccc4)nc3c2)n1 [Example 3.18, 4-(4-ethylthiazol-2-yl)-1-methyl-N-(2-phenyl-[1,2,4]triazolo[1,5-a]pyridin-7-yl)-1H-pyrazole-5-carboxamide]
C[C@@H]1CN(c2nc3cc(NC(=O)c4c(-c5nc(C(F)F)cs5)cnn4C)ccn3n2)C[C@H](C)O1 [Example 3.19, 4-(4-(difluoromethyl)thiazol-2-yl)-N-(2-((2S,6R)-2,6-dimethylmorpholino)-[1,2,4]triazolo[1,5-a]pyridin-7-yl)-1-methyl-1H-pyrazole-5-carboxamide]
Cc1ncc(C)c(-c2cnn(C)c2C(=O)Nc2cc3nc(-c4ccccc4)nn3cc2F)n1 [Example 3.22, 4-(2,5-dimethylpyrimidin-4-yl)-N-(6-fluoro-2-phenyl-[1,2,4]triazolo[1,5-a]pyridin-7-yl)-1-methyl-1H-pyrazole-5-carboxamide]
Cn1ncc(-c2ccc(C#N)cn2)c1C(=O)Nc1cc2nc(-c3ccccc3)nn2cc1F [Example 3.23, 4-(5-cyanopyridin-2-yl)-N-(6-fluoro-2-phenyl-[1,2,4]triazolo[1,5-a]pyridin-7-yl)-1-methyl-1H-pyrazole-5-carboxamide]
Cc1ccnnc1-c1cnn(C)c1C(=O)Nc1cc2nc(-c3ccccc3)nn2cc1F [Example 3.24, N-(6-fluoro-2-phenyl-[1,2,4]triazolo[1,5-a]pyridin-7-yl)-1-methyl-4-(4-methylpyridazin-3-yl)-1H-pyrazole-5-carboxamide]
Cc1nccc(-c2cnn(C)c2C(=O)Nc2cc3nc(-c4ccccc4)nn3cc2F)n1 [Example 3.25, N-(6-fluoro-2-phenyl-[1,2,4]triazolo[1,5-a]pyridin-7-yl)-1-methyl-4-(2-methylpyrimidin-4-yl)-1H-pyrazole-5-carboxamide]
COc1nccc(-c2cnn(C)c2C(=O)Nc2cc3nc(-c4ccccc4)nn3cc2F)n1 [Example 3.26, N-(6-fluoro-2-phenyl-[1,2,4]triazolo[1,5-a]pyridin-7-yl)-4-(2-methoxypyrimidin-4-yl)-1-methyl-1H-pyrazole-5-carboxamide]
COc1ncc(F)c(-c2cnn(C)c2C(=O)Nc2cc3nc(-c4ccccc4)nn3cc2F)n1 [Example 3.27, 4-(5-fluoro-2-methoxypyrimidin-4-yl)-N-(6-fluoro-2-phenyl-[1,2,4]triazolo[1,5-a]pyridin-7-yl)-1-methyl-1H-pyrazole-5-carboxamide]
COc1nccnc1-c1cnn(C)c1C(=O)Nc1cc2nc(-c3ccccc3)nn2cc1F [Example 3.28, N-(6-fluoro-2-phenyl-[1,2,4]triazolo[1,5-a]pyridin-7-yl)-4-(3-methoxypyrazin-2-yl)-1-methyl-1H-pyrazole-5-carboxamide]
Cn1ncc(-c2ncncc2Cl)c1C(=O)Nc1cc2nc(-c3ccccc3)nn2cc1F [Example 3.29, 4-(5-chloropyrimidin-4-yl)-N-(6-fluoro-2-phenyl-[1,2,4]triazolo[1,5-a]pyridin-7-yl)-1-methyl-1H-pyrazole-5-carboxamide]
COc1ncnc(-c2cnn(C)c2C(=O)Nc2cc3nc(-c4ccccc4)nn3cc2F)c1C [Example 3.31, N-(6-fluoro-2-phenyl-[1,2,4]triazolo[1,5-a]pyridin-7-yl)-4-(6-methoxy-5-methylpyrimidin-4-yl)-1-methyl-1H-pyrazole-5-carboxamide]
Cc1nccnc1-c1cnn(C)c1C(=O)Nc1cc2nc(-c3ccccc3)nn2cc1F [Example 3.32, N-(6-fluoro-2-phenyl-[1,2,4]triazolo[1,5-a]pyridin-7-yl)-1-methyl-4-(3-methylpyrazin-2-yl)-1H-pyrazole-5-carboxamide]
Cc1cncnc1-c1cnn(C)c1C(=O)Nc1cc2nc(-c3ccccc3)nn2cc1F [Example 3.33, N-(6-fluoro-2-phenyl-[1,2,4]triazolo[1,5-a]pyridin-7-yl)-1-methyl-4-(5-methylpyrimidin-4-yl)-1H-pyrazole-5-carboxamide]
COc1cncnc1-c1cnn(C)c1C(=O)Nc1cc2nc(-c3ccccc3)nn2cc1F [Example 3.34, N-(6-fluoro-2-phenyl-[1,2,4]triazolo[1,5-a]pyridin-7-yl)-4-(5-methoxypyrimidin-4-yl)-1-methyl-1H-pyrazole-5-carboxamide]
Cc1ncnc(-c2cnn(C)c2C(=O)Nc2cc3nc(-c4ccccc4)nn3cc2F)c1C [Example 3.35, 4-(5,6-dimethylpyrimidin-4-yl)-N-(6-fluoro-2-phenyl-[1,2,4]triazolo[1,5-a]pyridin-7-yl)-1-methyl-1H-pyrazole-5-carboxamide]
Cc1ncc(F)c(-c2cnn(C)c2C(=O)Nc2cc3nc(-c4ccccc4)nn3cc2F)n1 [Example 3.36, 4-(5-fluoro-2-methylpyrimidin-4-yl)-N-(6-fluoro-2-phenyl-[1,2,4]triazolo[1,5-a]pyridin-7-yl)-1-methyl-1H-pyrazole-5-carboxamide]
